From US20070161665A1, “Cancer treatment method” (priority 2003, published 2007)
Where a name gives a salt, the structure may show the parent alone.

Key:
AKT1 = AKT1 (Homo sapiens, UniProt P31749); test: Inhibition of AKT isoforms, enzyme IC50; assay type: biochemical
AKT3 = AKT3 (Homo sapiens, UniProt Q9Y243); test: Inhibition of AKT isoforms, enzyme IC50; assay type: biochemical
HN5 cells = test: Roche Cell Death ELISAPlus apoptosis assay in HN5 cells (median effect and sensitization ratio analysis); assay type: cell-based; settings: HN5; for Sensitization Ratio in HN5 with 5 μM GW589522A: 5 μM GW589522A 24 h
Description: HN5 cells are LICR-LON-HN5 head and neck carcinoma cells, which were a gift from the Institute of Cancer Research, Surrey, U.K.
Cell lines were grown in RPMI-1640 supplemented with 25 mM HEPES, 10 mM glutamine and 10% fetal bovine serum and maintained at 37° C. and 5% CO2 in a humid incubator. Assays were performed in 96 well microtiter plates with optimum seeding densities for each cell line.
Apoptosis was measured using the Roche Cell Death ELISA^Plus kit (catalog 1 774 425) which detects fragmented nucleosomal DNA that is generated during apoptosis.
Synergistic interaction between compounds was analyzed by the median effect method described by Chou and Talalay (Adv. Enzyme Regul. 22: 27-55, 1984). Briefly, if the two compounds fit the mutually exclusive model of Chou, one calculates the combination index (CI) using the formula CI=((D)1/(Dx)1)+((D)2/(Dx)2) (1) where (D)1 is the concentration of drug 1 in the combination that gives “x” percent apoptosis, (D)2 is the same for drug 2, and (Dx)1 and (Dx)2 are the concentrations of drug 1 or 2 that give “x” percent apoptosis when used alone. (D)1 and (D)2 are known from the composition of the combination and (Dx)1 and (Dx)2 can be calculated from the equation Dx=Dm*[fa/(1−fa)]^1/m (2) where Dm is the concentration of drug giving 50% effect, fa is the fraction affected, and m is the slope from the median effect plot of log (fa/fu) where fu is the fraction unaffected versus log (D). A CI less than 1 indicates synergy, equal to 1 indicates additivity and greater than 1 antagonism.
Sensitization is measured as the ratio between observed and expected apoptosis or caspase activation from a combination of AKT kinase inhibitor and EGFR/erb inhibitor. The expected level of activity (Ae) is calculated by Ae=1−((1−A1)*(1−A2)) (3) where A1 and A2 are the activities of drugs 1 and 2 alone at the concentration used in the combination (Harvey, R. J., J. Theor. Biol. 74: 411-437, 1978).

AKT2 = AKT2 (Homo sapiens, UniProt P31751); test: Inhibition of AKT isoforms, enzyme IC50; assay type: biochemical
Sequence of AKT2 (P31751 whole entry, species assumed, canonical isoform): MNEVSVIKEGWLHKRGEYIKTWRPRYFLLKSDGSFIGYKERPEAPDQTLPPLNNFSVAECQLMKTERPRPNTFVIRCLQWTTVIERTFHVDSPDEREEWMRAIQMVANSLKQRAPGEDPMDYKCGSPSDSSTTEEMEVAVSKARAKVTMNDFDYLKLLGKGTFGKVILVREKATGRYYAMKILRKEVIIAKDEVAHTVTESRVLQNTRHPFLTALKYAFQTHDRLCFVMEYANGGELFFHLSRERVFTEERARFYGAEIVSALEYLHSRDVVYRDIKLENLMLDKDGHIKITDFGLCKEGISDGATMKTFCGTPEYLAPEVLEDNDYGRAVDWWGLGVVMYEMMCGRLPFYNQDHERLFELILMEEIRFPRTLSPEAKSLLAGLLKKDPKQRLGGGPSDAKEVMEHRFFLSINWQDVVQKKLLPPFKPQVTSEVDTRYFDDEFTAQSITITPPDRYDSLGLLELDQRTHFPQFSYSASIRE

Sequence of AKT3 (Q9Y243 whole entry, species assumed, canonical isoform): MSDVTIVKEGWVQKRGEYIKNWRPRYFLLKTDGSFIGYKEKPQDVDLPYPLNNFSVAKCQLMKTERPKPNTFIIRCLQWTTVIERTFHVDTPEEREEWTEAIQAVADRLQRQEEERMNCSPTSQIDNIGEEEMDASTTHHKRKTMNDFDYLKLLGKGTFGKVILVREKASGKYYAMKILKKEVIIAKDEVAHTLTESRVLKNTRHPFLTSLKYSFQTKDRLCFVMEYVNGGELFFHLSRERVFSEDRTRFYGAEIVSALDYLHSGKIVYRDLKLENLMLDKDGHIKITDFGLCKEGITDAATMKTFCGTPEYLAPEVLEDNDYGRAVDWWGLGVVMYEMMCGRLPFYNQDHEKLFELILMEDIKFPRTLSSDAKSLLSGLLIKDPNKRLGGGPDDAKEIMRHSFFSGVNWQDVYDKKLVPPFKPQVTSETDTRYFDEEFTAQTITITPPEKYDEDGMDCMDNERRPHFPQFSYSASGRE
Sequence of AKT1 (P31749 whole entry, species assumed, canonical isoform): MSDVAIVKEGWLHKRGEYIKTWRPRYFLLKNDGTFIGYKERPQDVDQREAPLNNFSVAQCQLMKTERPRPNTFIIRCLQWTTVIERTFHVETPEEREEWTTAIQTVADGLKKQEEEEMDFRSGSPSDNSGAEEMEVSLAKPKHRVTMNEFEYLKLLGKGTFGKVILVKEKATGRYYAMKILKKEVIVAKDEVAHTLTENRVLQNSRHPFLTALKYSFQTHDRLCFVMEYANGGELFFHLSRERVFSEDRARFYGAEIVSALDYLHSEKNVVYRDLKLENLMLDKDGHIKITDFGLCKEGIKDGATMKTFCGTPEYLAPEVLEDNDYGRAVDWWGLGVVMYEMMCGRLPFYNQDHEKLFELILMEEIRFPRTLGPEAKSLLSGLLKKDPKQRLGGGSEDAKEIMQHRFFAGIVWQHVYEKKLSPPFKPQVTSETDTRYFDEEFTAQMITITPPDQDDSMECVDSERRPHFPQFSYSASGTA

Row | SMILES | IC50 (AKT1) | IC50 (AKT3) | Sensitization Ratio in HN5 with 5 μM GW589522A (HN5 cells; then compound 8 μM 4 h) | IC50 (AKT2) | Sensitization Ratio in HN5 with 5 μM GW589522A (HN5 cells; then compound 4 μM 4 h) | Net Apoptosis (HN5 cells; GW572016 0 μM 24 h, then Ex 9 2 μM 4 h) | Net Apoptosis (HN5 cells; GW572016 0 μM 24 h, then Ex 9 4 μM 4 h) | Net Apoptosis (HN5 cells; GW572016 0 μM 24 h, then Ex 9 8 μM 4 h) | Net Apoptosis (HN5 cells; GW572016 0 μM 24 h, then Ex 9 16 μM 4 h) | Net Apoptosis (HN5 cells; GW572016 0 μM 24 h, then Ex 9 20 μM 4 h) | Net Apoptosis (HN5 cells; GW589522 0 μM 24 h, then Ex 9 0.5 μM 4 h) | Net Apoptosis (HN5 cells; GW589522 0 μM 24 h, then Ex 9 2 μM 4 h) | Net Apoptosis (HN5 cells; GW589522 0 μM 24 h, then Ex 9 8 μM 4 h) | Sensitization Ratio in HN5 with 5 μM GW589522A (HN5 cells; then compound 10 μM 4 h) | Sensitization Ratio in HN5 with 5 μM GW589522A (HN5 cells; then compound 2.5 μM 4 h) | Sensitization Ratio in HN5 with 5 μM GW589522A (HN5 cells; then compound 5 μM 4 h)
1 | CCn1c(-c2nonc2N)nc2cncc(OC3CCNCC3)c21 [Ex 9 (tri-HCl salt), 4-[1-Ethyl-7-(piperidin-4-yloxy)-1H-imidazo[4,5-c]pyridin-2-yl]-furazan-3-ylamine] | 50 nM | 190 nM | 10 @ 8 | 270 nM | – | – | – | – | – | – | – | – | – | – | – | –
2 | CCn1c(-c2nonc2N)nc2cncc(OC3CCNCC3)c21 [Ex 9, 4-[1-Ethyl-7-(piperidin-4-yloxy)-1H-imidazo[4,5-c]pyridin-2-yl]-furazan-3-ylamine] | 130 nM | 410 nM | – | 390 nM | 2.6 @ 4 | 2.7% | 1.8% | 3.9% | 3.7% | 4.7% | 6.3% | 8.7% | 17.9% | – | – | –
3 | CCn1c(-c2nonc2N)nc2c(-c3ccccc3)ncc(OCC3CCCNC3)c21.O=C(O)C(F)(F)F (stereo not shown) [Ex 10, 4-{1-ethyl-4-phenyl-7-[(3-piperidinylmethyl)oxy]-1H-imidazo[4,5-c]pyridin-2-yl}-1,2,5-oxadiazol-3-amine trifluoroacetate] | 10 nM | 10 nM | – | 30 nM | – | – | – | – | – | – | – | – | – | 3.7 @ 10 | – | –
4 | CCn1c(-c2nonc2N)nc2c(-c3cccc(Cl)c3)ncc(OCC3CCNCC3)c21.O=C(O)C(F)(F)F [Ex 11, 4-{4-(3-chlorophenyl)-1-ethyl-7-[(4-piperidinylmethyl)oxy]-1H-imidazo-[4,5-c]pyridin-2-yl}-1,2,5-oxadiazol-3-amine trifluoroacetate] | 30 nM | 10 nM | – | 20 nM | – | – | – | – | – | – | – | – | – | – | 20 @ 2.5 | 25 @ 5
